Measurements published in US8658649B2, “Kinase inhibitor” (Sanofi, priority 2006, dated 2014).
Several values for one entry are separate records, joined by “and”; a condition that tells them apart may be missing. Equal entries are not always repeated.

Columns and labels:
DLCL-2 = assay: Viability assay of liquid tumor cell lines (MTS); type: cell-based; conditions: DLCL-2 (B-NHL), N = 4
Description: (§1) This method is to determine the viability of a liquid tumor cell line following treatment with a test compound. Tumor cells are maintained in suspension at log phase growth. On the day of use, cells are resuspended to a density of 0.05 to 0.1 million/ml and cells are incubated in 96 well plate with the test compounds for 96 hours. Viability of cells was measured by incubating cells with Promega's MTS reagent. The viability of the cell is proportional to the change in absorbance at 490 nm. By comparing the absorbance between control and compound-treated cells, the impact of the test compounds on the cell viability is determined as a percent of the control cell viability.
(§2) Harvest cells in complete RPMI from log-phase cultures at densities of approximately 0.3-0.7 million/ml. Count cells and adjust to 0.1 million/ml in phenol red free cRPMI (For fast growing cells with doubling time of equal or less than 24 hours, e.g. K562, use 0.05 million/ml instead to avoid over-growing).
(§3) Transfer triplicates of 100 μl of cells to the wells of 96-well clear plates for a total of 10000 cells/well. Note that each well already contains 10 μl of 10× concentrated test compound prepared as above.
(§4) Incubate cells for 72-96 hours at 37° C. in a tissue culture incubator containing 5% CO2.
(§5) 1. Thaw the Promega's MTS reagent and add 20 ul to each well with a repeat pipetor.
(§6) 4. Incubate at 370 C until the absorbance at 490 nm for the control cells is >1.5.
(§7) 5. Calculate the averaged compound-treated cell data as a percent of the averaged control cell data as follows: (Compound-treated value/control value)*100=% of control value Results: […]

DOHH-2 = assay: Viability assay of liquid tumor cell lines (MTS); type: cell-based; conditions: DOHH-2 (B-NHL), N = 4
Description: as §1, §2, §3, §4, §5, §6, §7

Granta-519 = assay: Viability assay of liquid tumor cell lines (MTS); type: cell-based; conditions: Granta-519 (MCL), N = 4
Description: as §1, §2, §3, §4, §5, §6, §7

HL-60 = assay: Viability assay of liquid tumor cell lines (MTS); type: cell-based; conditions: HL-60 (AML), N = 4
Description: as §1, §2, §3, §4, §5, §6, §7

JVM-2 = assay: Viability assay of liquid tumor cell lines (MTS); type: cell-based; conditions: JVM-2 (B-CLL), N = 4, listed as A003397769, 10 µM
Description: as §1, §2, §3, §4, §5, §6, §7

Jeko-1 = assay: Viability assay of liquid tumor cell lines (MTS); type: cell-based; conditions: Jeko-1 (MCL), N = 4
Description: as §1, §2, §3, §4, §5, §6, §7

Jurkat = assay: Viability assay of liquid tumor cell lines (MTS); type: cell-based; conditions: Jurkat (T-ALL), N = 4; for IC50: MTS assay
Description: as §1, §2, §3, §4, §5, §6, §7

Jurl-MK1 = assay: Viability assay of liquid tumor cell lines (MTS); type: cell-based; conditions: Jurl-MK1 (CML), N = 4
Description: as §1, §2, §3, §4, §5, §6, §7

K562 = assay: Viability assay of liquid tumor cell lines (MTS); type: cell-based; conditions: K562 (CML), N = 4
Description: as §1, §2, §3, §4, §5, §6, §7

KG-1 = assay: Viability assay of liquid tumor cell lines (MTS); type: cell-based; conditions: KG-1 (AML), N = 4
Description: as §1, §2, §3, §4, §5, §6, §7

L-363 = assay: Viability assay of liquid tumor cell lines (MTS); type: cell-based; conditions: L-363 (MM), N = 4
Description: as §1, §2, §3, §4, §5, §6, §7

ML-2 = assay: Viability assay of liquid tumor cell lines (MTS); type: cell-based; conditions: ML-2 (AML), N = 4
Description: as §1, §2, §3, §4, §5, §6, §7

Nalm-6 = assay: Viability assay of liquid tumor cell lines (MTS); type: cell-based; conditions: Nalm-6 (B-ALL), N = 4
Description: as §1, §2, §3, §4, §5, §6, §7

RPMI8226 = assay: Viability assay of liquid tumor cell lines (MTS); type: cell-based; conditions: RPMI8226 (MM), N = 4
Description: as §1, §2, §3, §4, §5, §6, §7

[1] = test system: Collagen-induced arthritis (CIA); assay: Rat collagen induced arthritis, combination dosing with Methotrexate; type: in vivo
Description: Immunization and Challenge: Female Lewis rats were immunized on day 0 and challenged on day 7 with cII from bovine nasal mixed with Freund's incomplete adjuvant at a final collagen concentration of 1.0 mg/ml. The animals were injected at the base of the tail with 400 μg of cII. Combination Dosing Regimen: Rats were dosed with the compound of Formula I (3.0 and 10 mg/kg, p.o., bi.d.) or Methotrexate (MTX, 0.1 and 0.2 mg/kg, p.o., q.d.) as monotherapy or in combinations consisting of each dose of the compound of Formula I with each dose of MTX starting on day 6 and continuing through day 21. Joint Pathology Ankle joint swelling was measured to the nearest 0.01 mm by using electronic digital calipers. Measurements were recorded 7 times throughout the study starting on day 6 and ending on day 21. Body weights were recorded on the same days. On day 21, hind paws were removed at the hairline just above the ankle and fixed in 10% neutral buffered formalin. MicroCT analysis: Ankle joints were examined using a cone-beam μCT scanner. A scout view scan was obtained first for selection of the examination volume of the specimens, followed by positioning, measurement and computational reconstruction. In ankle joints, the ratio of bone surface to bone volume, describing the complexity of bone surface in a certain volume, was analyzed. Statistical Analysis For joint swelling/inflammation, data were analyzed using Everstat v.5 software and a 2-way repeated measure ANOVA with Dunnett's post test. MicroCT data were analyzed by Everstat using a 1-way ANOVA and Newman-Keuls multiple comparison test.

IC50 (DOHH-2; Homo sapiens, MTS assay): 4.5 µM
IC50 (Granta-519; Homo sapiens, MTS assay): 3.4 µM
IC50 (Jeko-1; Homo sapiens, MTS assay): 3.1 µM
IC50 (Jurkat; Homo sapiens, Jurkat): 6.8 µM
IC50 (Jurkat; listed as A003397769): > 10 µM
IC50 (KG-1; Homo sapiens, MTS assay): 1.9 µM
IC50 (L-363; Homo sapiens, MTS assay): 5.5 µM
IC50 (ML-2; Homo sapiens, MTS assay): > 10 µM
IC50 (Nalm-6; Homo sapiens, MTS assay): 5.5 µM
IC50 (RPMI8226; Homo sapiens, RPMI-8226, MTS assay): > 10 µM
SMILES: CCc1c(-c2ccc(C(C)(C)O)cc2)[nH]c2nccnc12 [compound of Formula I, 2-[4-(7-Ethyl-5H-pyrrolo[2,3-b]pyrazin-6-yl)-phenyl]-propan-2-ol]
% Inhibition at max. conc. (10 uM) (DLCL-2): 0%
% Inhibition at max. conc. (10 uM) (DOHH-2; 10 uM): 75%
% Inhibition at max. conc. (10 uM) (Granta-519; 10 uM): 67%
% Inhibition at max. conc. (10 uM) (HL-60): 35%
% Inhibition at max. conc. (10 uM) (JVM-2): 60% and 59%
% Inhibition at max. conc. (10 uM) (Jeko-1; 10 uM): 97%
% Inhibition at max. conc. (10 uM) (Jurkat; 10 uM): 43%
% Inhibition at max. conc. (10 uM) (Jurl-MK1): 28%
% Inhibition at max. conc. (10 uM) (K562): 21%
% Inhibition at max. conc. (10 uM) (KG-1; 10 uM): 91%
% Inhibition at max. conc. (10 uM) (L-363; 10 uM): 61%
% Inhibition at max. conc. (10 uM) (ML-2; 10 uM): 28%
% Inhibition at max. conc. (10 uM) (Nalm-6; 10 uM): 84%
% Inhibition at max. conc. (10 uM) (RPMI8226; 10 uM): 36%
disease severity as measured by joint swelling/inflammation ([1]; 3.0 mg/kg monotherapy): failed to significantly impact on disease severity
bone erosion, MicroCT ([1]; 3 mg/kg monotherapy, vs vehicle): significant decrease was not observed
ankle swelling/inflammation ([1]; 10 mg/kg monotherapy, vs vehicle, days 15 through 21): significantly reduced ankle swelling/inflammation
bone erosion, MicroCT ([1]; 10 mg/kg po bid monotherapy, vs vehicle): significant decrease in bone erosion
